Test results: US20250145642A1, “BICYCLIC HETEROARENES AND METHODS OF THEIR USE” (Kineta, Inc., priority 2021, published 2025)

molecular target: full-length human PIKFYVE (N-terminal GST-fusion) (Homo sapiens (Human), UniProt Q9Y2I7, L932S/Q1183K/Q995L/S1033A/S696N/T998S); assay: PIKfyve biochemical assay (ADP-Glo Kinase assay, Carna Biosciences); details: ADP-Glo, full-length human GST-PIKFYVE, 10 μM to 3 nM; read-out: hPIKfyve IC50
Description: (§1) PIKfyve Biochemical Assay. The biochemical PIKfyve inhibition assays were run by Carna Biosciences according to proprietary methodology based on the Promega ADP-Glo™ Kinase assay. A full-length human PIKFYVE [1-2098(end) amino acids and S696N, L932S, Q995L, T998S, S1033A and Q1183K of the protein having the sequence set forth in NCBI Reference Sequence No. NP_055855.2] was expressed as N-terminal GST-fusion protein (265 kDa) using baculovirus expression system. GST-PIKFYVE was purified by using glutathione sepharose chromatography and used in an ADP-Glo™ Kinase assay (Promega). Reactions were set up by adding the test compound solution, substrate solution, ATP solution and kinase solution, each at 4× final concentrations. Reactions were prepared with assay buffer (50 mM MOPS, 1 mM DTT, pH7.2), mixed, and incubated in black 384 well polystyrene plates for 1 hour at room temperature. ADP-Glo™ reagent was then added for 40 minutes, followed by kinase detection reagent for an additional 40 minutes. The kinase activity was evaluated by detecting relative light units on a luminescence plate reader. Samples were run in duplicate from 10 μM to 3 nM. […] IC50 values were calculated from concentration vs % inhibition curves by fitting to a four-parameter logistic curve.
as §1, with “The” for “PIKfyve Biochemical Assay. The”, “accession number” for “the protein having the sequence set forth in NCBI Reference Sequence No.”, “curve. […]” for “curve.”

Sequence of full-length human PIKFYVE (N-terminal GST-fusion) (Q9Y2I7 whole entry S696N/L932S/Q995L/T998S/S1033A/Q1183K, the tested form may be a part): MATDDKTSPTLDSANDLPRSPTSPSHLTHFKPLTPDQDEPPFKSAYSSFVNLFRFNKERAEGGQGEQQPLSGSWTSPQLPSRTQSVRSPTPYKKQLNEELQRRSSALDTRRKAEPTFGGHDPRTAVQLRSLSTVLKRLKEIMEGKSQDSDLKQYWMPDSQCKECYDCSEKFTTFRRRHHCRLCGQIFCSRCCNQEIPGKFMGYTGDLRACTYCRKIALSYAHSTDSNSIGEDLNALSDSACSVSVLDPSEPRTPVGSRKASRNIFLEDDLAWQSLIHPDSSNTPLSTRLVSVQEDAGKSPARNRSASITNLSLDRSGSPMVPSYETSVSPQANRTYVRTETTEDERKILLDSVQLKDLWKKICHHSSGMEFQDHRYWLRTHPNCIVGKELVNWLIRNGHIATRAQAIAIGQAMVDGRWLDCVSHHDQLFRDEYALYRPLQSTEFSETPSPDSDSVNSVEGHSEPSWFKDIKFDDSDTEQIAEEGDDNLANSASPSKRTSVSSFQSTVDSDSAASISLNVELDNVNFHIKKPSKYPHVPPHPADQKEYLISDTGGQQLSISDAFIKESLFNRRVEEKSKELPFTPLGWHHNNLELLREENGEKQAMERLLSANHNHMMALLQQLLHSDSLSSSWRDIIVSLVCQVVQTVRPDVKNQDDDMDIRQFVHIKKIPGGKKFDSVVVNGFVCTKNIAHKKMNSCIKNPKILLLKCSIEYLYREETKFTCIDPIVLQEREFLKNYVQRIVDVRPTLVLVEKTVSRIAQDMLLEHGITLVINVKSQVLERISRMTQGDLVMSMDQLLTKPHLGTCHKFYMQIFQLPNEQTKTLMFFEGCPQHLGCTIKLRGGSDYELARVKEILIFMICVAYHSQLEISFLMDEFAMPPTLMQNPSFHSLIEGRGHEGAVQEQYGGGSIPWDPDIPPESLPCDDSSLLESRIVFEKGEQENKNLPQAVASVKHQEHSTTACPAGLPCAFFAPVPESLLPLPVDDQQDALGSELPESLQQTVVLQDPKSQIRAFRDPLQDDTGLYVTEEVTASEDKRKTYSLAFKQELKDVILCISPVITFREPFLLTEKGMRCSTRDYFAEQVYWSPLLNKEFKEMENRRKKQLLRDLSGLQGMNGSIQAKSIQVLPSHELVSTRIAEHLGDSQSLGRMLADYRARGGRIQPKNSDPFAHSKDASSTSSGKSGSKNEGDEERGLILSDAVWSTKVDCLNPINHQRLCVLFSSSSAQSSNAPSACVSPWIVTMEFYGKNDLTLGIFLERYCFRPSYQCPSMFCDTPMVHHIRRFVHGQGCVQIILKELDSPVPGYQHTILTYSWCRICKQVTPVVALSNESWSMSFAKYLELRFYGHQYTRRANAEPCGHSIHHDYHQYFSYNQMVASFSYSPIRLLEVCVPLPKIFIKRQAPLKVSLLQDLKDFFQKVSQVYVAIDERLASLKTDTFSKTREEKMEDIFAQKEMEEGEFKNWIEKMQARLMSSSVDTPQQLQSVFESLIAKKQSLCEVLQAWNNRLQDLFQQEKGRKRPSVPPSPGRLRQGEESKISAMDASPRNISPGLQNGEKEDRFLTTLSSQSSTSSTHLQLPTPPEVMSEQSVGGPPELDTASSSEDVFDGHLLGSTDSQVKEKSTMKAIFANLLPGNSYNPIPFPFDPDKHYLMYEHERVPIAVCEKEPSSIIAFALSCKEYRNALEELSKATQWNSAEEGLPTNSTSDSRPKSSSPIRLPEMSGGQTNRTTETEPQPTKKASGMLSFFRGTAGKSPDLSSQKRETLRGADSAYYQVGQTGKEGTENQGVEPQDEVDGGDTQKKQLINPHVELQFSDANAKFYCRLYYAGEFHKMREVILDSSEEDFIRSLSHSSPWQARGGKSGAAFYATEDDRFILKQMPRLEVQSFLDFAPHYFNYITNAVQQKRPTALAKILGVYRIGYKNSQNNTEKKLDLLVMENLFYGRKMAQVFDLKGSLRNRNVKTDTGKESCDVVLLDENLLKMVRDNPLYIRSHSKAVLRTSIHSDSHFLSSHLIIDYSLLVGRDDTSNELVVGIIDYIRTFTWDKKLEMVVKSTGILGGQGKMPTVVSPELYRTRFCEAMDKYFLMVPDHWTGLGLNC

Row | Molecule | IC50 [nM]
1 | OCC(O)COc1nc(N2CCOCC2)nc2c1CCN2c1ccccc1 (centres unmarked) [Compound 43, 3-((2-morpholino-7-phenyl-6,7-dihydro-6H-pyrrolo[2,3-d]pyrimidin-4-yl)oxy)propane-1,2-diol] | 100 to 1000
2 | Fc1cccc(N2CCc3c(Oc4cccnc4)nc(N4CCOCC4)nc32)c1 [Compound 56, 4-(7-(3-fluorophenyl)-4-(pyridin-3-yloxy)-6,7-dihydro-5H-pyrrolo[2,3-d]pyrimidin-2-yl)morpholine] | 10 to 100
3 | c1ncc(N2CCc3c(OCC4CCOCC4)nc(N4CCOCC4)nc32)cn1 [Compound 9, 4-(7-(pyrimidin-5-yl)-4-((tetrahydro-2H-pyran-4-yl)methoxy)-6,7-dihydro-5H-pyrrolo[2,3-d]pyrimidin-2-yl)morpholine] | 100 to 1000
4 | CN1CCCC(COc2nc(N3CCOCC3)nc3c2CCN3c2ccccc2)C1 (centres unmarked) [Compound 28, 4-(4-((1-methylpiperidin-3-yl)methoxy)-7-phenyl-6,7-dihydro-5H-pyrrolo[2,3-d]pyrimidin-2-yl)morpholine.formate] | 100 to 1000
5 | N#Cc1cccc(N2CCc3c(OCc4cccnc4)nc(N4CCOCC4)nc32)c1 [Compound 4, 3-(2-morpholino-4-(pyridin-3-ylmethoxy)-5H-pyrrolo[2,3-d]pyrimidin-7(6H)-yl)benzonitrile] | 100 to 1000
6 | c1ccc(N2CCc3c(OCc4ccncc4)nc(N4CCOCC4)nc32)cc1 [Compound 26, 4-(7-phenyl-4-(pyridin-4-ylmethoxy)-6,7-dihydro-5H-pyrrolo[2,3-d]pyrimidin-2-yl)morpholine] | 100 to 1000
7 | c1cncc(N2CCc3c(OCC4CCNC4)nc(N4CCOCC4)nc32)c1 (centres unmarked) [Compound 34, 4-(7-(pyridin-3-yl)-4-(pyrrolidin-3-ylmethoxy)-6,7-dihydro-5H-pyrrolo[2,3-d]pyrimidin-2-yl)morpholine] | 100 to 1000
8 | c1ccc(N2CCc3c(COCc4ccccn4)nc(N4CCOCC4)nc32)cc1 [Compound 62, 4-(7-phenyl-4-((pyridin-2-ylmethoxy)methyl)-6,7-dihydro-5H-pyrrolo[2,3-d]pyrimidin-2-yl)morpholine] | 10 to 100
9 | c1cc(N2CCc3c(-c4ccoc4)nc(N4CCOCC4)nc32)cnn1 [Compound 96, 4-(4-(furan-3-yl)-7-(pyridazin-4-yl)-6,7-dihydro-5H-pyrrolo[2,3-d]pyrimidin-2-yl)morpholine] | 10 to 100
10 | CC(C)(C)OC(=O)N1CC(c2nc(N3CCOCC3)nc3c2CCN3c2ccccc2)C1 [Compound 113, tert-butyl 3-(2-morpholino-7-phenyl-6,7-dihydro-5H-pyrrolo[2,3-d]pyrimidin-4-yl)azetidine-1-carboxylate] | < 10
11 | CC(C)(O)Cc1nc(N2CCOCC2)nc2c1CCN2c1ccccc1 [Compound 46, 2-methyl-1-(2-morpholino-7-phenyl-6,7-dihydro-5H-pyrrolo[2,3-d]pyrimidin-4-yl)propan-2-ol] | 10 to 100
12 | c1cncc(N2CCc3c(C4CCNCC4)nc(N4CCOCC4)nc32)c1 [Compound 108, 4-(4-(piperidin-4-yl)-7-(pyridin-3-yl)-6,7-dihydro-5H-pyrrolo[2,3-d]pyrimidin-2-yl)morpholine] | 1000 to 10000
13 | c1ccc(N2CCc3c(OCCC4CCCO4)nc(N4CCOCC4)nc32)cc1 (centres unmarked) [Compound 30, 4-(7-phenyl-4-(2-(tetrahydrofuran-2-yl)ethoxy)-6,7-dihydro-5H-pyrrolo[2,3-d]pyrimidin-2-yl)morpholine] | 100 to 1000
14 | COc1cccc(-c2c[nH]c3c(-c4ccncc4)nc(N4CCOCC4)nc23)n1 [Compound 139, 4-(7-(6-methoxypyridin-2-yl)-4-(pyridin-4-yl)-5H-pyrrolo[3,2-d]pyrimidin-2-yl)morpholine] | 10 to 100
15 | c1ccc(N2CCc3c(-c4cccnc4)nc(N4CCOCC4)nc32)cc1 [Compound 91, 4-(7-phenyl-4-(pyridin-3-yl)-6,7-dihydro-5H-pyrrolo[2,3-d]pyrimidin-2-yl)morpholine] | 10 to 100
16 | COc1cccc(C#Cc2nc(N3CCOCC3)nc3c2CCN3c2cccnc2)c1 [Compound 85, 4-(4-((3-methoxyphenyl)ethynyl)-7-(pyridin-3-yl)-6,7-dihydro-5H-pyrrolo[2,3-d]pyrimidin-2-yl)morpholine] | 100 to 1000

Row | Molecule | IC50 [nM]
17 | c1cc(-c2c[nH]c3c(OCc4cccnn4)nc(N4CCOCC4)nc23)cc(-n2cccn2)c1 [Compound 150, 4-(7-(3-(1H-pyrazol-1-yl)phenyl)-4-(pyridazin-3-ylmethoxy)-6H-pyrrolo[3,2-d]pyrimidin-2-yl)morpholine] | 10 to 100
18 | Fc1cccc(N2CCc3c(C4CCOC4)nc(N4CCOCC4)nc32)c1 (centres unmarked) [Compound 94, 4-(7-(3-fluorophenyl)-4-(tetrahydro-furan-3-yl)-6,7-dihydro-5H-pyrrolo[2,3-d]pyrimidin-2-yl)morpholine] | 100 to 1000
19 | c1cncc(N2CCc3c(COC4CCNC4)nc(N4CCOCC4)nc32)c1 (centres unmarked) [Compound 64, 4-(7-(pyridin-3-yl)-4-((pyrrolidin-3-yloxy)methyl)-6,7-dihydro-5H-pyrrolo[2,3-d]pyrimidin-2-yl)morpholine] | 1000 to 10000
20 | c1ccc(-c2c[nH]c3c(-c4ccncc4)nc(N4CCOCC4)nc23)nc1 [Compound 136, 4-(7-(pyridin-2-yl)-4-(pyridin-4-yl)-6H-pyrrolo[3,2-d]pyrimidin-2-yl)morpholine] | 10 to 100
21 | c1cncc(-c2nc(N3CCOCC3)nc3c2CCN3c2cccnc2)c1 [Compound 106, 4-(4,7-di(pyridin-3-yl)-6,7-dihydro-5H-pyrrolo[2,3-d]pyrimidin-2-yl)morpholine] | 10 to 100
22 | CC(C)(C)OC(=O)N1CCC(COc2nc(N3CCOCC3)nc3c2CCN3c2cccnc2)C1 (centres unmarked) [Compound 33, tert-butyl 3-(((2-morpholino-7-(pyridin-3-yl)-6,7-dihydro-4H-pyrrolo[2,3-d]pyrimidin-4-yl)oxy)methyl)pyrrolidine-1-carboxylate] | 100 to 1000
23 | 4-(7-(3-fluorophenyl)-4-(pyridin-3-ylmethoxy)-6,7-dihydro-5H-pyrrolo[2,3-d]pyrimidin-2-yl)morpholine [Compound 3] | 100 to 1000
24 | 4-(4-((oxetan-3-yloxy)methyl)-7-(pyridin-3-yl)-6,7-dihydro-5H-pyrrolo[2,3-d]pyrimidin-2-yl)morpholine [Compound 65] | 1000 to 10000
25 | c1ccc(N2CCc3c(OCCc4ccccn4)nc(N4CCOCC4)nc32)cc1 [Compound 44, 4-(7-phenyl-4-(2-(pyridin-2-yl)ethoxy)-6,7-dihydro-5H-pyrrolo[2,3-d]pyrimidin-2-yl)morpholine] | 10 to 100
26 | c1ccc(-n2cnc3c(-c4ccncc4)nc(N4CCOCC4)nc32)cc1 [Compound 128, 4-(9-phenyl-6-(pyridin-4-yl)-9H-purin-2-yl)morpholine] | 10 to 100
27 | Cn1nccc1-c1c[nH]c2c(-c3ccncc3)nc(N3CCOCC3)nc12 [Compound 141, 4-(7-(1-methyl-1H-pyrazol-5-yl)-4-(pyridin-4-yl)-5H-pyrrolo[3,2-d]pyrimidin-2-yl)morpholine] | 10 to 100
28 | c1ccc(N2CCc3c(OCC4COC4)nc(N4CCOCC4)nc32)cc1 [Compound 20, 4-(4-(oxetan-3-ylmethoxy)-7-phenyl-6,7-dihydro-5H-pyrrolo[2,3-d]pyrimidin-2-yl)morpholine] | 10 to 100
29 | c1cc(-c2nc(N3CCOCC3)nc3c(-c4nccc(C5CC5)n4)c[nH]c23)ccn1 [Compound 138, 4-(7-(4-cyclopropylpyrimidin-2-yl)-4-(pyridin-4-yl)-5H-pyrrolo[3,2-d]pyrimidin-2-yl)morpholine] | 100 to 1000
30 | Fc1cccc(N2CCc3c(-c4ccncc4)nc(N4CCOCC4)nc32)c1 [Compound 104, 4-(7-(3-fluorophenyl)-4-(pyridin-4-yl)-6,7-dihydro-5H-pyrroolo[2,3-d]pyrimidin-2-yl)morpholine] | < 10
31 | c1ccc(-c2cncc(Oc3nc(N4CCOCC4)nc4c3CCN4c3cccnc3)c2)cc1 [Compound 75, 4-(4-((5-phenylpyridin-3-yl)oxy)-7-(pyridin-3-yl)-6,7-dihydro-5H-pyrrolo[2,3-d]pyrimidin-2-yl)morpholine] | 10 to 100
32 | c1cc(-c2nc(N3CCOCC3)nc3c(-c4cnn(C5CC5)c4)c[nH]c23)ccn1 [Compound 140, 4-(7-(1-cyclopropyl-1H-pyrazol-4-yl)-4-(pyridin-4-yl)-5H-pyrrolo[3,2-d]pyrimidin-2-yl)morpholine] | 10 to 100
